In PubChem BioAssay AID330 (DTP/NCI, 2004):
Several values for one entry are separate records, joined by “and”; a condition that tells them apart may be missing. Equal values may be shown once. Toxic doses and inconclusive results are not listed.

Tested on: P388 leukemia ip, CD2F1 mice, survival T/C
Assay: NCI In Vivo Anticancer Drug Screen. Data for tumor model P388 Leukemia (intraperitoneal) in CD2F1 (CDF1) mice
Conditions: endpoint: median survival time, higher = longer survival
Outline: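 Mice carrying the transplanted tumor received test compound or vehicle. Survival was recorded in each group, and the value is the treated-group measurement divided by that of the vehicle-treated control group.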

[1] = dose: 12.5 mg/kg/injection, schedule: Q01DX009 (ip), vehicle: saline with Tween-80
[2] = dose: 25.0 mg/kg/injection, schedule: Q01DX009 (ip), vehicle: saline with Tween-80
[3] = dose: 50.0 mg/kg/injection, schedule: Q01DX009 (ip), vehicle: saline with Tween-80
[4] = dose: 100.0 mg/kg/injection, schedule: Q01DX009 (ip), vehicle: saline with Tween-80
[5] = dose: 200.0 mg/kg/injection, schedule: Q01DX009 (ip), vehicle: saline with Tween-80
[6] = dose: 50.0 mg/kg/injection, schedule: Q01DX005 (ip), vehicle: Klucel (hydroxypropylcellulose) (HPC)
[7] = dose: 100.0 mg/kg/injection, schedule: Q01DX005 (ip), vehicle: Klucel (hydroxypropylcellulose) (HPC)
[8] = dose: 50.0 mg/kg/injection, schedule: Q01DX009 (ip), vehicle: saline
[9] = dose: 100.0 mg/kg/injection, schedule: Q01DX009 (ip), vehicle: saline
[10] = dose: 200.0 mg/kg/injection, schedule: Q01DX009 (ip), vehicle: saline
[11] = dose: 100.0 mg/kg/injection, schedule: Q01DX001 (ip), vehicle: saline with Tween-80
[12] = dose: 200.0 mg/kg/injection, schedule: Q01DX001 (ip), vehicle: saline with Tween-80
[13] = dose: 400.0 mg/kg/injection, schedule: Q01DX001 (ip), vehicle: saline with Tween-80
[14] = dose: 50.0 mg/kg/injection, schedule: Q01DX005 (ip), vehicle: saline with Tween-80
[15] = dose: 100.0 mg/kg/injection, schedule: Q01DX005 (ip), vehicle: saline with Tween-80
[16] = dose: 200.0 mg/kg/injection, schedule: Q01DX005 (ip), vehicle: saline with Tween-80
[17] = dose: 25.0 mg/kg/injection, schedule: Q01DX005 (ip), vehicle: Klucel (hydroxypropylcellulose) (HPC)
[18] = dose: 400.0 mg/kg/injection, schedule: Q01DX009 (ip), vehicle: saline with Tween-80

## O=C(CCl)N1CCN(C/C=C/c2ccccc2)CC1
dose: 60.0 mg/kg/injection, schedule: Q01DX005 (ip), vehicle: saline
  T/C: 103 % of control
dose: 120.0 mg/kg/injection, schedule: Q01DX005 (ip), vehicle: saline
  T/C: 105 % of control

## CCOC(=O)C1CC(=O)C1C(=O)OCC (configuration not stated)
[1]
  T/C: 104 % of control
[2]
  T/C: 103 % of control
[3]
  T/C: 100 % of control
[4]
  T/C: 100 % of control
[5]
  T/C: 101 % of control

## CN(C)n1c(O)c(N=O)sc1=S
[6]
  T/C: 96 % of control
[7]
  T/C: 95 % of control

## CCOC(=O)C(C)C(=O)C(C)N1C(=O)c2ccccc2C1=O (configuration not stated)
dose: 25.0 mg/kg/injection, schedule: Q04DX003 (ip), vehicle: other
  T/C: 102 % of control
dose: 50.0 mg/kg/injection, schedule: Q04DX003 (ip), vehicle: other
  T/C: 96 % of control
dose: 100.0 mg/kg/injection, schedule: Q04DX003 (ip), vehicle: other
  T/C: 93 % of control
dose: 200.0 mg/kg/injection, schedule: Q04DX003 (ip), vehicle: other
  T/C: 93 % of control
dose: 400.0 mg/kg/injection, schedule: Q04DX003 (ip), vehicle: other
  T/C: 91 % of control

## CN(C/C=C/CN(C)C(=O)Nc1ccccc1)C(=O)Nc1ccccc1
[8]
  T/C: 96 % of control
[9]
  T/C: 100 % of control
[10]
  T/C: 89 % of control

## O=C(O)CN(CC(=O)O)C1CC1N(CC(=O)O)CC(=O)O (configuration not stated)
[8]
  T/C: 97 % of control
dose: 100.0 mg/kg/injection, schedule: Q01DX001 (ip), vehicle: saline
  T/C: 96 % of control
[9]
  T/C: 100 % of control
dose: 200.0 mg/kg/injection, schedule: Q01DX001 (ip), vehicle: saline
  T/C: 100 % of control
[10]
  T/C: 97 % of control
dose: 400.0 mg/kg/injection, schedule: Q01DX001 (ip), vehicle: saline
  T/C: 97 % of control

## O=C1NC(=O)C2C3C=CC(C12)C1C2C(=O)NC(=O)C2C31 (configuration not stated)
dose: 12.5 mg/kg/injection, schedule: Q01DX009 (ip), vehicle: distilled water + Tween-80
  T/C: 116 % of control
dose: 25.0 mg/kg/injection, schedule: Q01DX009 (ip), vehicle: distilled water + Tween-80
  T/C: 153 % of control
dose: 30.0 mg/kg/injection, schedule: Q01DX009 (ip), vehicle: water
  T/C: 163 % of control
dose: 50.0 mg/kg/injection, schedule: Q01DX009 (ip), vehicle: distilled water + Tween-80
  T/C: 193 % of control
[11]
  T/C: 96 % of control
[12]
  T/C: 109 % of control
[13]
  T/C: 119 % of control

## O=C1c2ccccc2S(=O)(=O)CC12OC2c1ccc(Cl)cc1 (configuration not stated)
dose: 100.0 mg/kg/injection, schedule: Q04DX002 (ip), vehicle: saline with Tween-80
  T/C: 88 % of control
dose: 200.0 mg/kg/injection, schedule: Q04DX002 (ip), vehicle: saline with Tween-80
  T/C: 88 % of control
dose: 400.0 mg/kg/injection, schedule: Q04DX002 (ip), vehicle: saline with Tween-80
  T/C: 94 % of control

## CC(=O)N(c1ccccc1)[Si](C)(C)C
[11]
  T/C: 107 % of control
[12]
  T/C: 106 % of control
[13]
  T/C: 100 % of control

## CCOC(=O)CSc1cc(O)c2ccccc2c1N=Nc1ccc(C(=O)O)cc1
dose: 12.5 mg/kg/injection, schedule: Q01DX005 (ip), vehicle: saline with Tween-80
  T/C: 94 % of control
dose: 25.0 mg/kg/injection, schedule: Q01DX005 (ip), vehicle: saline with Tween-80
  T/C: 88 % of control
[14]
  T/C: 88 % of control
[15]
  T/C: 86 % of control
[16]
  T/C: 93 % of control

## O=S(=O)(Nc1ccccn1)c1ccc(NC2OC(CO)C(O)C(O)C2O)cc1 (configuration not stated)
dose: 50.0 mg/kg/injection, schedule: Q01DX005 (ip), vehicle: saline
  T/C: 103 % of control
dose: 100.0 mg/kg/injection, schedule: Q01DX005 (ip), vehicle: saline
  T/C: 98 % of control
dose: 200.0 mg/kg/injection, schedule: Q01DX005 (ip), vehicle: saline
  T/C: 103 % of control

## O=C1OCCN1/N=C\c1ccccc1
[8]
  T/C: 94 % of control
[9]
  T/C: 87 % of control
[10]
  T/C: 90 % of control

## CCCCCCC(O)C[N+](=O)[O-] (configuration not stated)
dose: 5.56 mg/kg/injection, schedule: Q01DX009 (ip), vehicle: saline with Tween-80
  T/C: 102 % of control
dose: 8.33 mg/kg/injection, schedule: Q01DX009 (ip), vehicle: saline with Tween-80
  T/C: 110 % of control
[1]
  T/C: 117 % of control and 124 % of control
dose: 18.7 mg/kg/injection, schedule: Q01DX009 (ip), vehicle: saline with Tween-80
  T/C: 115 % of control
[2]
  T/C: 111 % of control
[3]
  T/C: 120 % of control

## O=C(O)CCCc1ccc2ccc3cccc4ccc1c2c34
[14]
  T/C: 102 % of control
[15]
  T/C: 98 % of control
[16]
  T/C: 100 % of control

## COc1ccc(NC2=CC(=S)NC(C)(C)C2)cc1
[8]
  T/C: 92 % of control
[9]
  T/C: 104 % of control
[10]
  T/C: 104 % of control

## CN(C)CCCNC1C(C2COC(C)(C)O2)OC2OC(C)(C)OC21 (configuration not stated)
dose: 100.0 mg/kg/injection, schedule: Q04DX002 (ip), vehicle: saline
  T/C: 97 % of control
dose: 200.0 mg/kg/injection, schedule: Q04DX002 (ip), vehicle: saline
  T/C: 95 % of control
dose: 400.0 mg/kg/injection, schedule: Q04DX002 (ip), vehicle: saline
  T/C: 93 % of control

## CN(C)c1ccc(C(=O)C(=O)c2ccccc2)cc1
dose: 100.0 mg/kg/injection, schedule: Q04DX003 (ip), vehicle: Klucel (hydroxypropylcellulose) (HPC)
  T/C: 106 % of control
dose: 200.0 mg/kg/injection, schedule: Q04DX003 (ip), vehicle: Klucel (hydroxypropylcellulose) (HPC)
  T/C: 99 % of control
dose: 400.0 mg/kg/injection, schedule: Q04DX003 (ip), vehicle: Klucel (hydroxypropylcellulose) (HPC)
  T/C: 100 % of control

## C/C(=N\NC(=S)NNC(=S)N(C)c1ccccc1)c1ccccc1
[17]
  T/C: 98 % of control
[6]
  T/C: 93 % of control
[7]
  T/C: 94 % of control
dose: 200.0 mg/kg/injection, schedule: Q01DX005 (ip), vehicle: Klucel (hydroxypropylcellulose) (HPC)
  T/C: 91 % of control

## CCOC(=O)C(=O)Nc1sc(C)c(C)c1C#N
dose: 50.0 mg/kg/injection, schedule: Q01DX009 (ip), vehicle: saline + alcohol
  T/C: 90 % of control
dose: 100.0 mg/kg/injection, schedule: Q01DX009 (ip), vehicle: saline + alcohol
  T/C: 98 % of control
dose: 200.0 mg/kg/injection, schedule: Q01DX009 (ip), vehicle: saline + alcohol
  T/C: 105 % of control

## CCCC1OC(/C=C/c2ccccc2)OCC1CC (configuration not stated)
[4]
  T/C: 101 % of control and 108 % of control and 109 % of control
[5]
  T/C: 101 % of control and 116 % of control (2×)
[18]
  T/C: 116 % of control and 120 % of control

## O=C1OCCC(O)=C1C=Nc1ccccc1
dose: 6.25 mg/kg/injection, schedule: Q01DX005 (ip), vehicle: Klucel (hydroxypropylcellulose) (HPC)
  T/C: 108 % of control
dose: 12.5 mg/kg/injection, schedule: Q01DX005 (ip), vehicle: Klucel (hydroxypropylcellulose) (HPC)
  T/C: 112 % of control
[17]
  T/C: 117 % of control
dose: 100.0 mg/kg/injection, schedule: Q01DX001 (ip), vehicle: Klucel (hydroxypropylcellulose) (HPC)
  T/C: 100 % of control
dose: 200.0 mg/kg/injection, schedule: Q01DX001 (ip), vehicle: Klucel (hydroxypropylcellulose) (HPC)
  T/C: 97 % of control
dose: 400.0 mg/kg/injection, schedule: Q01DX001 (ip), vehicle: Klucel (hydroxypropylcellulose) (HPC)
  T/C: 99 % of control

## C(C#Cc1ccccc1)#Cc1ccccc1
[2]
  T/C: 98 % of control
[3]
  T/C: 99 % of control
[4]
  T/C: 96 % of control
[5]
  T/C: 98 % of control

## COc1cc(NS(C)(=O)=O)ccc1Nc1c2ccccc2nc2c(C)cccc12
dose: 1.25 mg/kg/injection, schedule: Q01DX009 (ip), vehicle: saline with Tween-80
  T/C: 155 % of control
dose: 2.5 mg/kg/injection, schedule: Q01DX009 (ip), vehicle: saline with Tween-80
  T/C: 165 % of control
dose: 5.0 mg/kg/injection, schedule: Q01DX009 (ip), vehicle: saline with Tween-80
  T/C: 87 % of control
dose: 6.25 mg/kg/injection, schedule: Q01DX009 (ip), vehicle: Klucel (hydroxypropylcellulose) (HPC)
  T/C: 97 % of control

## COc1ccc(NC(=O)Oc2ccc3c(C)cc(=O)oc3c2)c(OC)c1
[4]
  T/C: 122 % of control
[5]
  T/C: 121 % of control
[18]
  T/C: 91 % of control
